Reference: US20160067211A1, “PHARMACEUTICAL COMPOSITION” (Eberhard Karls Universitaet Tuebingen Medizinische Fakultaet, priority 2013, published 2016)

Legend:
[1] = tested on: histon protein H3 acetylation in BLM melanoma cells; test: Western blot of acetylated histon H3, BLM; assay type: cell-based, human; conditions: 100 μM, 24 hours, vs. DMSO control
Experimental: FIG. 4: 6-PN and 8-PN induce a hyper acetylation in SK-MEL-28 melanoma cells. Western blot analysis of acetylated histon complex H3 in cellular lysates of BLM and SK-MEL-28 cells treated with 100 μM 6-PN or 8-PN for 1, 2, 4, 12 and 24 h, or with 100 μM SAHA (as reference HDACi) for 24 h. Equal protein loading was verified by vinculin staining (lower rows). At 24 hours (BLM) and 2 hours (SK-MEL-28) after the PN treatment a prominent up-regulation of ac-H3 is detectable. The protein expression levels were estimated performing a densitometric analysis.
(§1) The following antibodies were used: Anti-Vinculin and Anti-Actin (1:5000, Sigma-Aldrich), Anti-Acetyl-Histon H3 (1:5000, Millipore, Billerica, USA), Anti-Caspase-3 (1:1000), Anti-AKT, Anti-pAKT, Anti-ERK, Anti-pERK, […], Anti-p70S6 Kinase, and Anti-pS6 protein (1:1000), all from Cell Signaling, Frankfurt, Germany), Anti-LC3 (1:5000, Sigma-Aldrich).
An incubation of cells with HDACi induces generally a hyperacetylation of histon proteins. Therefore, the acetylation status of the histon protein H3 after treatment with 6-PN or 8-PN was investigated. Corresponding to the HDAC screening results, a direct effect was monitored. […] SAHA was used as control HDACi (at 100 μM, 24 hours treatment).

[2] = tested on: cleaved caspase-3 in SK-MEL-28 melanoma cells; test: Western blot for cleaved caspase-3; assay type: cell-based, human; conditions: SK-MEL-28, 100 μM
Experimental: Western blot analysis of SK-MEL-28 melanoma cells treated with 100 μM of 6-PN, 8-PN, SAHA or TSA. EtOH and DMSO were applied as controls.
as §1
(§2) To further analyze the type of cell death induced by 6-PN and 8-PN, western blot analyses of SK-MEL-28 melanoma cells were performed 1, 2, 4, 12 and 24 hours after the treatment with 100 μM 6-PN and 8-PN. […] Upon PN treatment an inconsistent expression of oncogenic AKT and phospho-AKT (pAKT) was detected. […] Thus, there was an obvious discrepancy between the expression of pAKT and pS6P. Therefore it was first also looked for the expression of P70S6 kinase and its phosphorylated form. […] Therefore it was next asked whether the S6P could be phosphorylated by a different mechanism. In this respect, activated ERK can phosphorylate the p90 ribosomal S6 kinase (pP90). pP90 also phosphorylates the S6P (in addition to the P70S6 kinase). Since the pP70S6 kinase was absent in the used cells (SK-MEL-28 and BLM), it was hypothesized that the phosphorylation of the S6P was conducted via the pERK/pP90 pathway, independent from the P70S6 signalling. This hypothesis was supported by the parallel down-regulation of the bands for pP90 (Thr359/Ser363) and pS6P 12 hours after the treatment with 6-PN, and the reappearance of both bands after 24 hours (FIG. 8). […] The western blot experiments were repeated with BLM cells under the same treatment conditions and yielded similar results (not shown).

[3] = tested on: pS6P, P70S6 kinase, pERK, caspase-3, Bcl-xl in SK-MEL-28 melanoma cells; test: Western blot of signalling proteins; assay type: cell-based, human; conditions: SK-MEL-28, 100 μM
Experimental: FIG. 8: 6-PN and 8-PN decrease expression of pS6p via down regulation of pERK/pP90. Western blot analysis of SK-MEL-28 melanoma cells 1 hour, 2 hours, 4 hours, 12 hours, and 24 hours after treatment with 100 μM 6-PN or 8-PN. 6-PN and 8-PN induced down regulation of pS6p accompanied by a decrease of pERK and pP90, respectively. 6-PN and 8-PN induced time dependent increase of p70s6-kinase.
as §1, §2

[4] = tested on: BLM melanoma cells; test: FACS cell cycle analysis (PI), BLM; assay type: cell-based, human; conditions: 100 μM, 48 hours
Experimental: (§3) (A) Cell cycle FACS analyses of PI stained BLM and SK-MEL-28 melanoma cells. 100 μM of 8-PN-induced a G2 arrest in both cells. (B) FACS analyses of BLM and SK-MEL-28 melanoma cells treated with 100 μM 6-PN or 8-PN and stained for annexin V/PI; staurosporin was used as control for apoptosis induction and DMSO as vehicle control. […] (C) BLM and SK-MEL-28 melanoma cells were treated with 100 μM of PNs; TSA, SAHA and EMSO were used as controls.
To further analyze the possibility of apoptosis induction, an extensive apoptosis assay was performed on SK-MEL-28 melanoma cells 4 hours after treatment with 100 μM 6-PN or 8-PN (FIG. 9). […] This was verified by FACS cell cycle analyses to screen for a possible increase of the sub-G1 fraction of cells (apoptotic cells) or for the induction of a G2 arrest (inhibition of proliferation). […] To further differentiate between the induction of apoptosis and/or necrosis an PI/Annexin V staining of SK-MEL-28 and BLM cells was performed 4 hours and 24 hours after the treatment with 6-PN or 8-PN; 10 μM staurosporin (6 hours treatment) was used as positive control for the induction of apoptosis; DMSO treatment was used as vehicle control. The cells were then analyzed by FACS.

[5] = tested on: LC3 in SK-MEL-28 melanoma cells; test: Western blot LC3 (autophagy), SK-MEL-28; assay type: cell-based, human; conditions: SK-MEL-28, 100 μM, after 12-24 hours
Experimental: as §3, §1
Since it has been speculated that the formation of intracytoplasmic vacuoles in pancreatic or breast cancer cells by 6-PN and 8-PN observed in pervious studies might represent an induction of autophagy, this issue was further investigated on a molecular level. BLM and SK-MEL-28 melanoma cells were treated with 100 μM of 6-PN, 8-PN, SAHA or TSA (and with DMSO as control), and the treated cells were lysed for protein extraction after 1 hour, 2 hours, 4 hours, 12 hours and 24 hours. […]

[6] = tested on: estrogen receptors of the rat uterus; conditions: cited from earlier work
[7] = tested on: angiogenesis; conditions: chorioallantois membrane assays in vivo; cited from earlier work
[8] = tested on: MCF7-cells; conditions: cited from earlier work
[9] = tested on: prostate cancer cell line PC-3; conditions: PC-3 in vitro; cited from earlier work
[10] = tested on: breast cancer cells MCF-7; conditions: cited from earlier work

In the case of `CC(C)=CCc1c(O)cc(O)c2c1OC(c1ccc(O)cc1)CC2=O` (centres unmarked) [8-PN, 5,7-Dihydroxy-2-(4-hydroxy-phenyl)-8-(3-methyl-but-2-enyl)-chroman-4-one], the “histon complex H3 acetylation” value [1] is reported as “massive increase”, the “band for cleaved caspase-3” value [2] is reported as “no additional band” and the “protein levels of caspase-3 and Bcl-xl” value ([3]; 1-24 hours) is reported as “decreased protein levels”. For the same compound, the “phospho-S6 protein (pS6P) expression” value ([3]; after 4 hours, 12 hours, and 24 hours) was “strongly down regulated”, the pERK expression ([3]; after 12 hours and 24 hours) was “strong down regulation” and the P70S6 kinase bands ([3]; time-dependent (1-24 hours)) was “down-regulated”. The “sub-G1 fraction (apoptotic cells)” value [4] was “remained unaffected”, the “cells in the G2 phase” value ([4]; DMSO control 30.4%) was 99.6% and the “shift from LC3-I to LC3-II (autophagy)” value [5] was “clearly induced the shift”. For the same compound, the “binding affinity for estrogen receptors” value [6] was “strong binding affinity”, the angiogenesis [7] was “inhibits the angiogenesis” and the apoptosis [8] was “induces the apoptosis”. The antiproliferative effects [9] was “antiproliferative effects” and the “effects on breast cancer cells compared with 17β-Estradiol” value [10] was “imitates the effects of 17β-Estradiol”.
